# Laboratory results from article PMC2943425 (Journal of medicinal chemistry, 2010).
# How the values were obtained:
# [1] = molecular target: Substance P receptors (GPI) (Cavia porcellus, UniProt P30547); experiment: GPI substance P antagonist assay in the presence of 1 μM naloxone; design: species or system guinea pig; conditions: against Substance P induced contraction, n = 4
# neuropathic pain = conditions: cited from earlier work
# Substance P receptors (GPI), sequence (P30547 whole entry): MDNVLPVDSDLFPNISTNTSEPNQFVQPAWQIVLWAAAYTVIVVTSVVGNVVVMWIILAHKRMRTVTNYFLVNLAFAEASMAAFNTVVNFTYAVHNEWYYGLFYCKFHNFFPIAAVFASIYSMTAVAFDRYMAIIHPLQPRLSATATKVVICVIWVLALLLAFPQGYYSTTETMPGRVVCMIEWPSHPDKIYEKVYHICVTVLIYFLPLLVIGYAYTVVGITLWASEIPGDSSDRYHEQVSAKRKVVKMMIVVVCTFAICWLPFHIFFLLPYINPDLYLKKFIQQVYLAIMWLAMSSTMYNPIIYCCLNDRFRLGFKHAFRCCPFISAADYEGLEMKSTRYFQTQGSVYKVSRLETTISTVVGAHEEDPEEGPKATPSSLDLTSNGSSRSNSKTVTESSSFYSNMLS
Compound,"SP antagonist Ke, GPI [1]",effect on neuropathic pain in animal models (neuropathic pain),opioid-induced tolerance in animal models (neuropathic pain)
"CC(=O)N[C@@H](Cc1c[nH]c2ccccc12)C(=O)OCc1cc(C(F)(F)F)cc(C(F)(F)F)c1 [L-732,138]",250 ± 87 nM,–,–
"Tyr^1-D-Ala^2-Gly^3-Phe^4-Met^5-Pro^6-Leu^7-Trp^8-O-[3′,5′-(CF3)2-Bzl] [TY005]",–,powerful attenuation of neuropathic pain,without producing the opioid-induced tolerance
